In one assay the test system is focal seizures. The note with it: cited from earlier work.
Assay [1] concerns pentylenetetrazol (PTZ)-induced ictal brain activity. Description: Modulation of PTZ-induced seizures, BOLD fMRI. In kind it is in vivo, male Wistar rats. To be noted: positive control, Wistar rats. As for the experimental part: Functional MRI (fMRI) was performed using a high-field preclinical MRI system in anesthetized male Wistar rats in order to determine the modulation of pentylenetetrazol (PTZ)-induced ictal brain activity by chronic treatment with test compound (TC). […] Vehicle and 3 mg/kg Alprazolam served as controls (see, Table 11). Seizures were induced with PTZ in each experimental group. A schematic of the study design can be seen in FIG. 6. Various physiological parameters were also measured throughout the experiment including body weight, CO2 levels, blood pH, and heart rate. […] Vehicle and 3 mg/kg Alprazolam served as controls (see, Table 12).

The subject of the next assay is EAE. Description: Experimental autoimmune encephalomyelitis (EAE) model of MS. In kind it is in vivo. To be noted: EAE in C57BL/6 mice; 1, 2, 4 mg/kg oral once daily, Day 14 to Day 34.
The next assay deals with spasms. The assay can be described thus: Two-stage model of infantile spasms (NMDA-induced). In kind it is in vivo, Sprague-Dawley rats. The note with it: spasms triggered on P15, rats. The source says: A two-stage model of infantile spasms was developed (FIG. 19A). Pregnant Sprague-Dawley rats receive two injections of betamethasone on gestational (G) day 15. Offspring of those pregnancies are used for experiments during infancy, postnatal days (P) 10-15. Spasms are induced by i.p. injection of N-methyl-D-aspartic acid (NMDA), which is graded depending on the postnatal age of the subjects.
Days of dosing were P10, P11, P12, P13, P14 and P15.

The subject of a further assay is human CD4+ T cells. The assay can be described thus: Human CD4+ T cells activated under Th17 skewing conditions, in vitro. In kind it is cell-based. To be noted: data not shown.

Entries after “also recorded” stand apart in the source; their conditions may differ. Like-named read-outs stand apart in the source and are kept apart here.

Procedure for EAE: EAE is induced in C57BL/6 mice by immunization with MOG35-55 or MOG1-12s in CFA emulsion followed by administration of pertussis toxin (PTX) in PBS. […] Fingolimod (FTY720, Gilenya) is the most commonly used positive control in this model.
Vehicle was 1.6% DMSO in water. […] These were frozen at −20° C. Every 3 to 4 days, one aliquot was thawed and diluted with water to create a fine suspension at 0.8 mg/mL (for 4 mg/kg dosing). Final DMSO concentration was 1.6%. […] FTY720 stock solution (30 mg/mL in ethanol) was prepared for all ongoing studies. Daily, the FTY720 stock solution was diluted with water to the final dosing concentration of 0.6 mg/mL.
EAE was induced on Day 0 by myelin oligodendrocyte glycoprotein (MOG35-55)/complete Freund's adjuvant (CFA) immunization, followed by pertussis toxin (PTX) injections on Days O and 1. Treatment was therapeutic, starting on Day 14. […] Treatment continued through Day 34. Mice were observed through the end of the study, Day 35.
Clinical scores were assessed as follows: 1=limp tail, 2=partial hind leg paralysis, 3=complete hind leg paralysis, 4=complete hindleg and partial front leg paralysis; 5=moribund.

Consider `NC(=O)N1c2ccccc2C[C@H](O)c2ccccc21` [APTIOM, Eslicarbazepine], for which the “Placebo-adjusted >50% Focal Seizure Reduction” value in the assay on focal seizures (1200 mg) was 20%. In addition, the “Placebo-adjusted Median Reduction in Focal Seizure Frequency” value (“Placebo-adjusted Median Reduction” for short) with focal seizures (2000 mg) was 14-24%.
Turning to `Cc1nnc2n1-c1ccc(Cl)cc1C(c1ccccc1)=NC2` [Alprazolam], the “PTZ-induced brain activity (BOLD fMRI)” value in assay [1] (3 mg/kg i.p., 1 dose, 3 mg/kg) is recorded as “effectively cancelled PTZ-induced brain activity; also recorded: Vehicle vs. Alprazolam in all”.
With `CCC[C@@H]1CC(=O)N([C@@H](CC)C(N)=O)C1` [BRIVIACT, Brivaracetam], in the assay on focal seizures (200 mg), the “Placebo-adjusted >50% Focal Seizure Reduction” value is on record as 18% and the “Placebo-adjusted Median Reduction” value is recorded as 26%.
As to `CN1C(=O)CN=C(c2ccccc2)c2cc(Cl)ccc21` [Diazepam], the “PTZ-induced brain activity (BOLD fMRI)” value in assay [1] (dose not given) is recorded as “effectively cancelled PTZ-induced brain activity”.
With `CC[C@@H](C(N)=O)N1CCCC1=O` [KEPPRA, Leviteracetam], in the assay with focal seizures (3000 mg), the “Placebo-adjusted >50% Focal Seizure Reduction” value was 29% and the “Placebo-adjusted Median Reduction” value was 23-31%.
For `COC[C@@H](NC(C)=O)C(=O)NCc1ccccc1` [VIMPAT, Lacosamide], in the assay on focal seizures (400 mg), the “Placebo-adjusted >50% Focal Seizure Reduction” value is reported as 17% and the “Placebo-adjusted Median Reduction” value is reported as 15-29%.
With `NC(=O)O[C@@H](Cn1ncnn1)c1ccccc1Cl` [XCOPRI, Cenobamate], the “Placebo-adjusted >50% Focal Seizure Reduction” value in the assay on focal seizures (400 mg) is 39%. The “Placebo-adjusted Median Reduction” value with focal seizures (4200 mg) was 31%.
`Cc1cc(N2CCc3cc(F)ccc3C2)cc(C)c1NC(=O)CC(C)(C)C` [XEN1101]: in the assay on focal seizures (25 mg), the “Placebo-adjusted >50% Focal Seizure Reduction” value is reported as 40% and the “Placebo-adjusted Median Reduction” value is reported as 35%.
With ivermectin, the “limb paralysis (clinical score)” value in the assay with EAE was “significantly downregulates”. Moreover, in the assay with spasms (2 mg/kg i.p. daily P10-P15), the “occurrence of spasms in comparison to controls (vehicle)” value is on record as “significantly suppressed occurrence of spasms; also recorded: significantly fewer spasms”. The “occurrence of spasms in comparison to controls (vehicle)” value in the assay with spasms (4 mg/kg i.p. daily P10-P15) is reported as “significantly suppressed occurrence of spasms; also recorded: significantly fewer spasms”. In addition, in the assay on human CD4+ T cells, the “FoxP3 mRNA levels” value is “up-regulation” and the “increase in the percentage of Foxp3+ T cells” value is 50%.

Source of the values: patent US20250222017A1, “METHODS OF USING AVERMECTIN COMPOSITIONS FOR THE TREATMENT OF NEUROLOGICAL DISORDERS AND DOSING REGIMENS” (priority 2022, published 2025).
